# Assay results from ChEMBL document CHEMBL4414610, “Constituents from the Leaves of Tetraena mongolica and Their Protective Activity in HEK 293t Cells Damaged by CdCl2” (J Nat Prod, 2019).
# Calls of active or inactive are those of the source. No cut-off for these calls is given here.
# Tested on: HEK-293T
# Assay: Cytoprotective activity against CdCl2-induced cell death in human HEK293T cells assessed as increase in cell viability preincubated for 2 hrs followed by CdCl2 treatment and measured after 48 hrs by MTT assay
# Assay type: functional, cell-based
row,SMILES,IC50 [µM]
1,OC[C@H]1O[C@@H](OCc2ccccc2)[C@H](O)[C@@H](O)[C@@H]1O,80.3
2,"CC1=CC(=O)CC(C)(C)[C@@]1(O)/C=C/[C@@H](C)O[C@@H]1O[C@H](CO)[C@@H](O)[C@H](O)[C@H]1O [6S,9R-ROSEOSIDE]",55.7

# Tested on: HEK-293T
# Assay: Cytoprotective activity against CdCl2-induced cell death in human HEK293T cells at 25 to 100 uM preincubated for 2 hrs followed by CdCl2 treatment and measured after 12 hrs by MTT assay
# Assay type: functional, cell-based
row,SMILES,Activity
1,OC[C@H]1O[C@@H](OCc2ccccc2)[C@H](O)[C@@H](O)[C@@H]1O,Active
2,COc1cc(-c2oc3cc(O)cc(O)c3c(=O)c2O[C@@H]2O[C@H](CO[C@@H]3O[C@@H](C)[C@H](O)[C@@H](O)[C@H]3O)[C@@H](O)[C@H](O)[C@H]2O)ccc1O,Active
3,C[C@H](/C=C/[C@@]1(O)[C@H](C)CC(=O)CC1(C)C)O[C@@H]1O[C@H](CO)[C@@H](O)[C@H](OS(=O)(=O)O)[C@H]1O,Active
4,O=c1c(O[C@@H]2O[C@H](CO)[C@@H](O)[C@H](O)[C@H]2O)c(-c2ccc(O)c(O)c2)oc2cc(O)cc(O)c12,Active
5,CC1=CC(=O)CC(C)(C)[C@@]1(O)/C=C/[C@@H](C)O[C@@H]1O[C@H](CO)[C@@H](O)[C@H](OS(=O)(=O)O)[C@H]1O,Active
6,C[C@H](CCc1ccc(O)cc1)O[C@@H]1O[C@H](CO)[C@@H](O)[C@H](OS(=O)(=O)O)[C@H]1O,Active
7,"CC1=CC(=O)CC(C)(C)[C@@]1(O)/C=C/[C@@H](C)O[C@@H]1O[C@H](CO)[C@@H](O)[C@H](O)[C@H]1O [6S,9R-ROSEOSIDE]",Active
8,C[C@@H]1O[C@@H](OC[C@H]2O[C@@H](Oc3c(-c4ccc(O)c(O)c4)oc4cc(O)cc(O)c4c3=O)[C@H](O)[C@@H](O)[C@@H]2O)[C@H](O)[C@H](O)[C@H]1O,Active
